One may read the IC50 as the concentration at which inhibition is half-maximal. By EC50 is commonly meant the concentration that produces a half-maximal response.

One test addresses T1, Estrogen receptor (Homo sapiens, UniProt P03372).
T1 sequence (P03372 whole entry): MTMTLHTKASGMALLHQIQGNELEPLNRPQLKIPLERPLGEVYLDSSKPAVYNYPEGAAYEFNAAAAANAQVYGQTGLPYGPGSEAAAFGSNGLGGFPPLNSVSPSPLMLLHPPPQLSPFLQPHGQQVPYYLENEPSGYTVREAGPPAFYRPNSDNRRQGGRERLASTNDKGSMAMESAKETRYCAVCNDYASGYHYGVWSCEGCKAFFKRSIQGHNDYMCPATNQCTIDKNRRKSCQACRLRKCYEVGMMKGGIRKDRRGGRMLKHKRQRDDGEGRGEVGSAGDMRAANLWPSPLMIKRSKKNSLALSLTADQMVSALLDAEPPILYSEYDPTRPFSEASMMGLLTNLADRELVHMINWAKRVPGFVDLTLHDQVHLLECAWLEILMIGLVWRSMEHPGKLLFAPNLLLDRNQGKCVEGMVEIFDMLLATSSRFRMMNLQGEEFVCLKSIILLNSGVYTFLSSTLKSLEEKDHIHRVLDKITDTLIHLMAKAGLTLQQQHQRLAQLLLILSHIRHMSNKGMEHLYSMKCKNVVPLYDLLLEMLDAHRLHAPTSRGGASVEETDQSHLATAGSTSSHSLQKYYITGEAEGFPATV

In a further test the target is Estrogen receptor beta (Homo sapiens, UniProt Q92731). The test can be described thus: blockers of SRC-3 recruitment to ERβ – biochemical, ELISA, streptavidin-HRP readout, orthogonal assay, confirmation (AID 1060). Background: In an ELISA, binding on a coated surface is turned into a signal by an enzyme label.
For test [1], the target named is T2, Mannose-6-phosphate isomerase (Homo sapiens, UniProt P34949).
T2 sequence (P34949 whole entry): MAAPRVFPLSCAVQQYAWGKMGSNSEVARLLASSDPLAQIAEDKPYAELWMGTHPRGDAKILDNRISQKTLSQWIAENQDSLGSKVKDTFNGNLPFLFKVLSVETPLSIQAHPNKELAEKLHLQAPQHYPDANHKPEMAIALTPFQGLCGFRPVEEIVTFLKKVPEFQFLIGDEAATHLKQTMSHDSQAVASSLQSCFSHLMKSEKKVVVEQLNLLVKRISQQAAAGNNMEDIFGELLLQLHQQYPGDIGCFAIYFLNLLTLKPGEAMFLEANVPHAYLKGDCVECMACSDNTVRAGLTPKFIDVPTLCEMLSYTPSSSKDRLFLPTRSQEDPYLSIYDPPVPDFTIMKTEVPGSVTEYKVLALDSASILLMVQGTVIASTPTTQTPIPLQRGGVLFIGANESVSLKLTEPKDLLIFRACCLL
The test can be described thus: MPI inhibition at elevated mannose 6-phosphate – biochemical, fluorescence intensity, high mannose 6-phosphate, primary screen (AID 1220).

Test [2] deals with T2, Mannose-6-phosphate isomerase. The test can be described thus: MPI enzyme activity inhibition – biochemical, fluorescence intensity, coupled assay, primary screen (AID 1209).
Test [3] is described as follows: IC50 of Artemis nuclease activity blockers – biochemical, fluorescence intensity, dose response (AID 720701).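 Note: Artemis endonuclease enzyme.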 It is filed as functional.
Test [4] concerns the target T3, Luciferin 4-monooxygenase (Photinus pyralis, UniProt P08659). Kind of test: inhibition of purified Photinus pyralis luciferase – biochemical, luminescence, dose response (AID 1891).
A short description of test [5]: Luminescence Cell-Based Dose Confirmation HTS to Identify Inhibitors of Platelet Dense Granule Release. [Related pubchem assays: 1663 (Primary HTS), 1678 (Summary of Project)]. It is filed as functional.
Another test relates to HT-1080. The test can be described thus: HT1080 cell viability loss – fluorescence readout (AID 620). In kind it is functional, cell-based. The conditions noted are these: Homo sapiens.
In test [6] the target is T3, Luciferin 4-monooxygenase. Kind of test: Counter Screen for Luciferase-based Assay Positives. [Related pubchem assays: 620, 618, 411 ]. (The purpose of a counterscreen is to sort out artefacts and off-target activity.)
A further test deals with T4, Caspase-3 (Homo sapiens, UniProt P42574).
T4 sequence (P42574 whole entry): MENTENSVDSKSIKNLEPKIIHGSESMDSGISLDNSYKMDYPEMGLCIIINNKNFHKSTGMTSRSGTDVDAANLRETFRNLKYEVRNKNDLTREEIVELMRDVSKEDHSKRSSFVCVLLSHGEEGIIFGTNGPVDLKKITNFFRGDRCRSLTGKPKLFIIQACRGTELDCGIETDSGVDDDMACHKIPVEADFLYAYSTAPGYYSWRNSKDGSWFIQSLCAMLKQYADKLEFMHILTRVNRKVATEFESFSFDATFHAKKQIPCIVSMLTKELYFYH
Kind of test: SAR Analysis of small molecule inhibitors of Sentrin-specific proteases (SENPs) using a Caspase-3 Selectivity assay. [Related pubchem assays (depositor defined):AID2540, AID2599, AID434973, AID489001]. In kind it is functional.

Test [7] deals with T5, Sentrin-specific protease 8 (Homo sapiens, UniProt Q96LD8).
T5 sequence (Q96LD8 whole entry): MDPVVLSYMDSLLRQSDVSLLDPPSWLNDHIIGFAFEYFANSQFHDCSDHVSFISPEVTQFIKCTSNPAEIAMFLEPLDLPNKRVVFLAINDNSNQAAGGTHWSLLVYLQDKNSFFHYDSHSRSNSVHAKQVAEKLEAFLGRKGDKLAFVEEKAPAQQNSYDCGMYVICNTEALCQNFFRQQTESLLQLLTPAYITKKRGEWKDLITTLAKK
Kind of test: inhibition of human SENP8 cleavage activity – biochemical, luminescence, SAR follow-up (AID 504501). It is filed as functional.

Test [8] concerns the target T6, Sentrin-specific protease 6 (Homo sapiens, UniProt Q9GZR1).
T6 sequence (Q9GZR1 whole entry): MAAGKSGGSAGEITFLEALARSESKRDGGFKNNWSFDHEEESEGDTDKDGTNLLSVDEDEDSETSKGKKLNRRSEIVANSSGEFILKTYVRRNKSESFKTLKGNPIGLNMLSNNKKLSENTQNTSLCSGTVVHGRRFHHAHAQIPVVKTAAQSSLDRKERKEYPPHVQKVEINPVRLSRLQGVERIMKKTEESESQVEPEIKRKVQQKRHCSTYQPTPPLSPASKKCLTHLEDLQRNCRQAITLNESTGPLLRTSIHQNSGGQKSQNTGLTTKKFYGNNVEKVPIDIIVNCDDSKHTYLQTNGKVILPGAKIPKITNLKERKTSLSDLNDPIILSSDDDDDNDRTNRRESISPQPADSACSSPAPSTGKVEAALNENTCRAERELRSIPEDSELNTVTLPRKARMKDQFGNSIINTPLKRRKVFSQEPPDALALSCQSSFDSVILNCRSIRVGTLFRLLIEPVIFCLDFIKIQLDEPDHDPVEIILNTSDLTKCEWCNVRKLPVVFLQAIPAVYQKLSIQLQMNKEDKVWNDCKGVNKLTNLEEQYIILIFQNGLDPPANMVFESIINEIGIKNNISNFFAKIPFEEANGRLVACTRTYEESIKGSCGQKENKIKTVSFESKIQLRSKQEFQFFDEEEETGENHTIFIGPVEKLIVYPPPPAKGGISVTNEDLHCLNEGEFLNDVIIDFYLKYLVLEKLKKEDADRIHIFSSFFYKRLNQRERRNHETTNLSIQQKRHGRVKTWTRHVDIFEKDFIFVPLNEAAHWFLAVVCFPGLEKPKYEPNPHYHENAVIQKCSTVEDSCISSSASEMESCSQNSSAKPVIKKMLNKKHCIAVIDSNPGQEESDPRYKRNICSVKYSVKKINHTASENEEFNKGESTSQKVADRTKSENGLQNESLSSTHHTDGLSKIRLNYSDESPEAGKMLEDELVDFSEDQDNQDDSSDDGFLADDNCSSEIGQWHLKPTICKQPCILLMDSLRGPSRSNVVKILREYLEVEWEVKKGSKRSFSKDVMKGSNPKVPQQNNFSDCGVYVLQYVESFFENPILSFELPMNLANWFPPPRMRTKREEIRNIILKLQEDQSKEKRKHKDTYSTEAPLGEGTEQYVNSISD
The test can be described thus: SAR Analysis of small molecule inhibitors of Sentrin-specific protease 6 (SENP6) using a Luminescent assay. [Related pubchem assays (depositor defined):AID2582, AID2599]. It is filed as functional.

The target in test [9] is T7, Sentrin-specific protease 7 (Homo sapiens, UniProt Q9BQF6).
T7 sequence (Q9BQF6 whole entry): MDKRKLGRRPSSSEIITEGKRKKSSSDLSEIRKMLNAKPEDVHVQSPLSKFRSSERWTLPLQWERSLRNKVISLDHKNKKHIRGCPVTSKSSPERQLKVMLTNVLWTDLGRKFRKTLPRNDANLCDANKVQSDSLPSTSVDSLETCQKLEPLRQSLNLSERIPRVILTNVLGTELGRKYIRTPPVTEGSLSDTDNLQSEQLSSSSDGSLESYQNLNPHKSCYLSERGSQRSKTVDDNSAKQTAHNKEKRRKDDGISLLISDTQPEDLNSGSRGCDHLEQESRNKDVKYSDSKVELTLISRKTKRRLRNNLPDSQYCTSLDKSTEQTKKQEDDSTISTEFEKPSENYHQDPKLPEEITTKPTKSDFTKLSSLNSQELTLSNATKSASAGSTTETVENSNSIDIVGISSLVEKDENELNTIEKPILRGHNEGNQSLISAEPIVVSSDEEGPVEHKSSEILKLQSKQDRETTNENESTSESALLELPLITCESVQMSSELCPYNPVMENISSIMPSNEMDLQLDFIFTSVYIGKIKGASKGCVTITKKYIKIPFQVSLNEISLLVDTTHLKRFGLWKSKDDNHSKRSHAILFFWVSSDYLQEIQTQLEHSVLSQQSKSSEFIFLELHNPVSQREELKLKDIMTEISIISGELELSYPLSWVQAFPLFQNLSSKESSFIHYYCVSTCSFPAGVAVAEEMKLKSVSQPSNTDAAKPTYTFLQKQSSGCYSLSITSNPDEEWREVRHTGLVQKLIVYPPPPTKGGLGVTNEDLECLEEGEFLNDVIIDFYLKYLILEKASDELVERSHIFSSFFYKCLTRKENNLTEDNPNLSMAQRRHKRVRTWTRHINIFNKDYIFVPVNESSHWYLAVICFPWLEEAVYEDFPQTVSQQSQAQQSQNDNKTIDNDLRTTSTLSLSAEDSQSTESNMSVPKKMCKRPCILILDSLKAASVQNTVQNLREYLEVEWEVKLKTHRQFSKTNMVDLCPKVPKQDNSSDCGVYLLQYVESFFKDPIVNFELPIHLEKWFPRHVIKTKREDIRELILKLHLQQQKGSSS
The test can be described thus: inhibition of human SENP7 cleavage activity – biochemical, luminescence, SAR follow-up (AID 504497). It is filed as functional.

Molecules are shown by their SMILES. Active and inactive are the calls of the source. Some results are limits rather than exact numbers.

T3 sequence (P08659 whole entry): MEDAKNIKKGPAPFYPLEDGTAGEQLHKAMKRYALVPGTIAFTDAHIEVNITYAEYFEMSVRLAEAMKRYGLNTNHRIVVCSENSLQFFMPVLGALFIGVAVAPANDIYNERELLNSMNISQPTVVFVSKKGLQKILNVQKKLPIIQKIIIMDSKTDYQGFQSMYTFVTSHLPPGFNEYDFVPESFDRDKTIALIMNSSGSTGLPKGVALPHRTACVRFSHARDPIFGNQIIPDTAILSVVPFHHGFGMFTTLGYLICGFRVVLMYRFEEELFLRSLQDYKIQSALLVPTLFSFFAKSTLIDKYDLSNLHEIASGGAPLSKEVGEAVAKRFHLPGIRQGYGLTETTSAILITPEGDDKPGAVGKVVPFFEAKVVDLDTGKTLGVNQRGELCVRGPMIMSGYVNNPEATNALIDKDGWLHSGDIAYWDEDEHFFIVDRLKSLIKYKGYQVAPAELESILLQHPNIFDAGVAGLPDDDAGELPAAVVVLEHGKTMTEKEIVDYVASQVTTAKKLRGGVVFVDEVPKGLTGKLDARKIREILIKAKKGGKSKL
Chain of Estrogen receptor beta (Q92731 whole entry): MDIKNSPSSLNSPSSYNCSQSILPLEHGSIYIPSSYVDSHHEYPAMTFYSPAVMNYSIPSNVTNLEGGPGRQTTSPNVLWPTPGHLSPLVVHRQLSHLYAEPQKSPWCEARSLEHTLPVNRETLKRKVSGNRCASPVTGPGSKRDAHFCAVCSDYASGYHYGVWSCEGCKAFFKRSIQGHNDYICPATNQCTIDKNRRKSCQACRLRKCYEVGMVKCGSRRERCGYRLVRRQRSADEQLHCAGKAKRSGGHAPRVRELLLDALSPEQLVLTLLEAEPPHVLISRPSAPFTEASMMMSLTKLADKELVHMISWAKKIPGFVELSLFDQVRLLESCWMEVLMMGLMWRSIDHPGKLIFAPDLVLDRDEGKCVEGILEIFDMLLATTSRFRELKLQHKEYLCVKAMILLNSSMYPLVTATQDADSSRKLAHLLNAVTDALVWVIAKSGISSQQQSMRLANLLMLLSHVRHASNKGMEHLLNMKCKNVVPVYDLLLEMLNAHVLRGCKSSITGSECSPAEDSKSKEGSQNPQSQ

For the compound `N#CC1=C(N)OC2=C(CCC/C2=C/c2ccoc2)C1c1ccoc1` (stereo unspecified), the IC50 on Estrogen receptor is 10 µM (active); against Estrogen receptor beta, 3.99 µM (not active).
As for `Cc1cc(C)c(C(N)=O)c(Nc2cccc3ccccc23)n1`, the results for the IC50 in test [1], in test [2] and in test [3] were > 50 µM (not active), > 50 µM (not active) and > 20 µM (inactive), respectively.
On to `COC(=O)c1nn(-c2ccc(-c3ccccc3)cc2)cc1O`, for which the EC50 was 1.93 µM (active) in test [4], 3.79 µM (active) in test [5], > 50 µM (not active) with HT-1080 and > 100 µM (not active) in test [6].
Take `Cc1cc(C)c(OCC(=O)Nc2cccc(O)c2)cc1C`: the EC50 in the test with HT-1080 is > 50 µM (not active); in test [6] it was 3.52 µM (active).
Turning to `CC1CCc2c(sc(NC(=O)c3ccc(Cn4cc(Br)cn4)o3)c2C(N)=O)C1` (stereo unspecified), the IC50 is > 99 µM (inactive) on Caspase-3; > 99 µM (inactive) in test [7]; > 99 µM (inactive) in test [8]; > 50 µM (not active) against Estrogen receptor; > 99 µM (inactive) in test [9].

Source of the values: ChEMBL document CHEMBL1201862, “PubChem BioAssay data set” (2004).
